Experimental data taken from US20060067916A1, “Sperm cell process system” (XY, Inc., priority 2002, published 2006).

Tested on: stallion sperm cells
Assay: Motility of Hoechst-stained stallion sperm diluted in KMT with or without stimulant (Example 5)
Assay type: cell-based
Parameters: Motility 3h: unit not given here
Settings: for Motility 3h / Progressive 3h: Motility Stimulants, 2 mM caffeine or 2.5 mM NaPyruvate in KMT; for Motility 3h with stimulant / Progressive 3h with stimulant: in % (unit assumed)
Description: Sperm cells in ejaculates from three stallions were initially evaluated for volume, concentration, and motility. The remaining portion of each ejaculate was extended in KMT to 25×10^6 sperm/mL and stored at RT for 18 hr. The stored ejaculates were pelleted by centrifugation at 600 g for 10 min. Pelleted sperm cells were resuspended in KMT with Hoechst to generate sperm samples of 400×10^6 sperm/mL,12.4 μl Hoechst, adjusted to either 7.1 pH or 7.9 pH, and then incubated at 34° C. for either 30 min or 60 min. Stained sperm cell samples were extended with either 1 mL KMT with 1.5 μl/mL 5% red food dye; 1 mL KMT with 2.0 μl/mL 5% red food dye; 1 mL KMT with 2.5 μl/mL 5% red food dye; or 1 mL KMT with 3.0 μl/mL […] red food dye. Sperm cell samples were then evaluated for % dead and resolution by flow cytometry analysis, and motility was evaluated by further diluting treated samples in either 140 μl KMT: 20 μl sperm cells; 140 μl KMT 2 mM caffeine: 20 μl sperm cells; 140 μl KMT, 2.5 mM NaPyruvate: 20 μl sperm cells.

[1] = stain time 30 min (12 samples only)
[2] = stain time 60 min (12 samples only)

SMILES	Motility 3h	Progressive 3h	Motility 3h with stimulant (food coloring 1.5 μl/mL)	Progressive 3h with stimulant (food coloring 1.5 μl/mL)	Motility 3h with stimulant (food coloring 2 μl/mL)	Progressive 3h with stimulant (food coloring 2 μl/mL)	Motility 3h with stimulant (food coloring 2.5 μl/mL)	Progressive 3h with stimulant (food coloring 2.5 μl/mL)	Motility 3h with stimulant (food coloring 3 μl/mL)	Progressive 3h with stimulant (food coloring 3 μl/mL)	Motility 3h with stimulant (pH 7.1, stain time 30 min)	Progressive 3h with stimulant (pH 7.1, stain time 30 min)	Motility 3h with stimulant (pH 7.1, stain time 60 min)	Progressive 3h with stimulant (pH 7.1, stain time 60 min)	Motility 3h with stimulant (pH 7.9, stain time 30 min)	Progressive 3h with stimulant (pH 7.9, stain time 30 min)	Motility 3h with stimulant (pH 7.9, stain time 60 min)	Progressive 3h with stimulant (pH 7.9, stain time 60 min)	Motility 3h with stimulant (stain pH 7.1)	Progressive 3h with stimulant (stain pH 7.1)	other results
CC(=O)C(=O)O [Pyruvate, NaPyruvate]	65.1	62.29	64.58	62.08	65	60.83	65.83	64.58	65	61.67	64.17	60.83	67.5	66.67	65	60	64.17	62.5	65.83	63.13	Motility 3h with stimulant (stain pH 7.9): 64.38; Progressive 3h with stimulant (stain pH 7.9): 61.46; Motility 3h with stimulant [1]: 64.58; Progressive 3h with stimulant [1]: 60.42; Motility 3h with stimulant [2]: 65.83; Progressive 3h with stimulant [2]: 64.58; Motility 3h with stimulant (stallion Gunsmoke): 62.19; Progressive 3h with stimulant (stallion Gunsmoke): 56.56; Motility 3h with stimulant (stallion Rowdy): 67.19; Progressive 3h with stimulant (stallion Rowdy): 67.19; Motility 3h with stimulant (stallion Sylekt): 65.94; Progressive 3h with stimulant (stallion Sylekt): 63.13
Cn1c(=O)c2c(ncn2C)n(C)c1=O [Caffeine, caffeine]	67.71	66.56	66.67	65.42	68.33	67.5	68.75	67.92	67.08	65.42	66.67	65	70	70	66.67	65	67.5	65.83	68.54	67.5	Effect of stimulant on sperm cell motility (FIG. 5) (about 2 mM): stimulate motility; Motility 3h with stimulant (stain pH 7.9): 66.88; Progressive 3h with stimulant (stain pH 7.9): 65.63; Motility 3h with stimulant [1]: 66.67; Progressive 3h with stimulant [1]: 65; Motility 3h with stimulant [2]: 68.75; Progressive 3h with stimulant [2]: 67.92; Motility 3h with stimulant (stallion Gunsmoke): 66.25; Progressive 3h with stimulant (stallion Gunsmoke): 63.13; Motility 3h with stimulant (stallion Rowdy): 67.5; Progressive 3h with stimulant (stallion Rowdy): 67.5; Motility 3h with stimulant (stallion Sylekt): 69.38; Progressive 3h with stimulant (stallion Sylekt): 69.06
